Patent publication US11564913B2, “Compositions and methods for treating cancer” (Children's Hospital Medical Center, priority 2019, dated 2023)

Experiments:
[1] = test system: murine colon adenocarcinoma MC38 tumors; assay: MC38 colon adenocarcinoma mouse model; format: in vivo, mice
Description: FIG. 21: NIRA2 inhibits tumor growth of murine colon adenocarcinoma xenografts. […] Animals began treatment with vehicle, IODVA1, or NIRA2 (N=10 per group) when tumors reached 100-200 mm^3 in volume (day 12 post-injection) and received treatment 5 times per week for two weeks. Representative pictures of the spleens and extracted tumors are shown.
The in vivo efficacy of NIRA2 was tested against a xenograft mouse model generated with the murine colon adenocarcinoma MC38 cells. Cells were injected subcutaneously in the flank of a hind leg. Each injection contained one million cells of Matrigel+MC38 in a volume of […]. Tumors were calipered until an average size of 100-200 mm^3 is reached. Animals were sorted in into treatment groups (N=10) and administered (5× a week) by IP 250 μL of a PBS solution containing vehicle control, IODVA1 (1 mM), or NIRA2 (0.5 mM). Treatments lasted 2 weeks Animals were euthanized as tumor size reached 2 cm^3 or at the end of the study. Tumors were measured daily and mice weighed 3 times a week.

[2] = test system: Vav3−/− p190-BCR-ABL1 BM leukemic cells expressing ΔCH-mutant Vav3; assay: Vav3 rescue, cell cycle analysis; format: cell-based, murine; conditions: even at the highest concentration
From the text: (§1) FIG. 15: Expression of transgenic Vav3 re-sensitizes Vav3-deficient cells to IODVA1. (A) Vav3 domain structure, calponin-homology (CH), acidic region (Ac), Dbl-homology (DH), pleckstrin-homology (PH), zinc finger (ZF), Src-homology 2 and 3 (SH2/SH3). (B) Representative histogram data of the cell cycle analysis of wild-type (Vav3^+/+) and Vav3-deficient (Vav3^−/−) p190-BCR-ABL1 leukemic bone marrow cells expressing empty vector, full-length Vav3 or ΔCH mutant and treated with vehicle control (black) or IODVA1 at 5 (red) or 10 μM (dark grey) for 18 h. (C) Quantification of the average number of colonies made by bone marrow wild-type and Vav3^−/− p190-BCR-ABL1 leukemic bone marrow cells expressing empty vector, full-length Vav3 or ΔCH mutant and treated with vehicle control (black) or IODVA1 at 1 (light salmon), 5 (red) and 10 μM (dark grey). *** p≤0.001.
(§2) Next, we reasoned that if IODVA1 targets Vav3, rescuing Vav3^−/− leukemic cells by expressing exogenous Vav3 should re-sensitize those cells to IODVA1. We expressed full-length Vav3 or the dominant active ΔCH-mutant (FIG. 15A) in Vav3^−/− p190-BCR-ABL1-transformed murine bone marrow leukemic cells and analyzed changes in cell cycle 18 h post-treatment with vehicle control or IODVA1 (FIG. 15B). Expressing full-length Vav3 but not the empty vector re-sensitized the Vav3^−/− BM leukemic cells to IODVA1 as shown by a 5.8-fold increase in apoptosis (p=0.0005) and a 15% decrease (p=0.08) in cells in the S-phase at 10 μM.
(§3) For Vav3 rescue experiments, low density bone marrow cells from wild-type ([…]) or Vav3^−/− mice were transduced with bicistronic retroviral vector encoding p190 BCR-ABL1-IRES-YFP (yellow fluorescent protein) and YFP^+ cells were sorted 48 h post-transduction. […] Cell cycle was analyzed at 18 h post BrdU incorporation.
(§4) Cell cycle was analyzed by using in vitro incorporation of 5-Bromo-2-deoxyuridine using Brdu Flow kit (BD Pharmingen, Cat #552598). […] DNAse treatment was done according to the instructions and stained with anti BrdU and apoptosis was analyzed by 7-AAD staining through flow cytometry analysis.

[3] = test system: Vav3−/− p190-BCR-ABL1 BM leukemic cells expressing full-length Vav3; assay: Vav3 rescue, cell cycle analysis; format: cell-based, murine; conditions: 10 μM, 18 h
From the text: as §1, §2, §3, §4

MDA-MB-231 cells = assay: Cell proliferation, trypan blue exclusion counting; format: cell-based; conditions: Homo sapiens, read-out: estimated GI50
Description: (§5) FIG. 4. IODVA1 inhibits proliferation of cancer model cells. (A) IODVA1 is a potent cell proliferation inhibitor. MCF10A, MCF7, MDA-MB-231, and T47D cells were grown in the presence of the indicated IODVA1 concentrations and counted for 4 or up to 7 days. Each dot and bar is the mean±stdev respectively, of 3 independent experiments, with 2 technical replicates in each experiment. (B) Number of colonies made by MCF7, T47D, and MDA-MB-231 cells at the indicated IODVA1 concentrations. Results shown are mean±stdev of 2 independent experiments with 4 technical replicates each. (C) IODVA1 deactivates Ras at late incubation times. […] Quantification summary of 2 independent experiments is presented in the graph. n.s.—not significant, *-p<0.05, **-p<0.01, ****-p<0.0001. (D) IODVA1 inhibits proliferation of ST8814 cells. ST8814 cells were grown in the presence of the indicated IODVA1 concentrations and counted daily for 4 days. Each dot and bar is the mean and standard deviation respectively, of 3 independent experiments.
(§6) Applicants tested IODVA1's ability to inhibit the proliferation of cells harboring activated Ras and therefore its ability to recapitulate the compound obtained from the NCI. Applicants chose the NF1-associated malignant peripheral nerve sheath tumors (MPNST) cell line ST8814, which is characterized by active wild-type Ras (Basu et al., 1992; Mahller et al., 2006) and the triple negative breast cancer cell line MDA-MB-231 carrying the oncogenic KRAS^G13D mutation (Hollestelle et al., 2007). In addition, applicants used the non-transformed mammary epithelial cell line MCF10A (RAS^WT immortalized by a spontaneous t(3;9)(3p13;9p22) translocation that deletes the CDKN2A gene, also known as p16) and the non-invasive estrogen receptor (ER) and progesterone receptor (PR) positive RAS^WT breast cancer cell line MCF7 (wild-type p53) and T47D (mutant p53). Cells were grown in growth media containing IODVA1 at concentrations between 0.1 and 10 μM or vehicle control and cell number was counted using the trypan blue exclusion method. […] Appreciable decrease in proliferation of non-transformed MCF10A cells was not observed.

T47D cells = assay: Cell proliferation, trypan blue exclusion counting; format: cell-based; conditions: Homo sapiens, read-out: estimated GI50
Description: as §5, §6

MCF10A cells = assay: Cell proliferation, trypan blue exclusion counting; format: cell-based; conditions: 0.1 to 10 μM
Description: as §5, §6

MCF7 cells = assay: Cell proliferation, trypan blue exclusion counting; format: cell-based; conditions: Homo sapiens, read-out: estimated GI50
Description: as §5, §6

ST8814 cells = assay: Cell proliferation, trypan blue exclusion counting; format: cell-based; conditions: ST88-14, 96 h; day 4; read-out: 50% growth inhibitory concentration (GI50)
Description: as §5, §6

OC1(c2ccccn2)N=C(Nc2nc3ccccc3[nH]2)N=C1c1ccccn1 (stereo not shown) [IODVA1, (Z)-2-((1H-benzo[d]imidazol-2-yl)imino)-4,5-di(pyridin-2-yl)-2,5-dihydro-1H-imidazol-5-ol]
tumor growth and tumor volumes ([1]; IP 250 μL of 1 mM, 5× a week, 2 weeks): significantly reduced | effect on spleen ([1]; end of the study): did not notice any effect | re-sensitization to IODVA1 [2]: did not re-sensitize | increase in apoptosis ([3]; p=0.0005): 5.8 fold | decrease in cells in the S-phase ([3]; p=0.08): 15% | GI50 (MDA-MB-231 cells): ≤ 1000 nM | GI50 (T47D cells): ≤ 1000 nM | appreciable decrease in proliferation (MCF10A cells): not observed | GI50 (MCF7 cells): ≤ 1000 nM | GI50 (ST8814 cells): 1000 nM
